Measured values: PubChem BioAssay (NCI)
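Briefly, cells in 96-well plates were exposed to five compound concentrations for 48 h, and endpoints were estimated by linear interpolation. GI50 is the concentration that inhibits growth by half. Definition used: TGI = concentration required for complete inhibition of growth.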

Experiments:
Assay in all cases: NCI-60 cell line screen, 48 h
[1] = tested on: SF-539 CNS
[2] = tested on: SW-620 colon
[3] = tested on: 786-0 renal
[4] = tested on: HT29 colon
[5] = tested on: SNB-75 CNS
[6] = tested on: NCI-H23 lung
[7] = tested on: SF-268 CNS
[8] = tested on: SK-MEL-5 melanoma
[9] = tested on: BT-549 breast
[10] = tested on: UO-31 renal
[11] = tested on: HOP-62 NSCLC
[12] = tested on: M14 melanoma
[13] = tested on: HCT-116 colon
[14] = tested on: KM12 colon
[15] = tested on: SF-295 CNS
[16] = tested on: A549 NSCLC
[17] = tested on: MOLT-4 leukemia
[18] = tested on: RXF 393 renal
[19] = tested on: OVCAR-5 ovarian
[20] = tested on: TK-10 renal
[21] = tested on: A498 renal
[22] = tested on: MDA-MB-435
[23] = tested on: OVCAR-4 ovarian
[24] = tested on: RPMI-8226 leukemia
[25] = tested on: SK-OV-3 ovarian
[26] = tested on: EKVX NSCLC
[27] = tested on: OVCAR-8 ovarian
[28] = tested on: SK-MEL-2 melanoma
[29] = tested on: SN12C renal
[30] = tested on: U251 CNS
[31] = tested on: MDA-MB-231 breast
[32] = tested on: HCT-15 colon
[33] = tested on: NCI/ADR-RES ovarian
[34] = tested on: MALME-3M melanoma
[35] = tested on: CAKI-1 renal
[36] = tested on: SNB-19 CNS
[37] = tested on: NCI-H522 lung
[38] = tested on: PC-3 prostate
[39] = tested on: CCRF-CEM leukemia
[40] = tested on: HOP-92 NSCLC
[41] = tested on: LOX IMVI melanoma
[42] = tested on: K-562 leukemia
[43] = tested on: HCC-2998 colon
[44] = tested on: OVCAR-3 ovarian
[45] = tested on: NCI-H460 lung
[46] = tested on: ACHN renal
[47] = tested on: COLO 205 colon
[48] = tested on: MCF7 breast
[49] = tested on: HL-60(TB) leukemia
[50] = tested on: T-47D breast
[51] = tested on: DU-145 prostate
[52] = tested on: UACC-62 melanoma
[53] = tested on: HS 578T breast

## COc1ccc(/C=C/C(=O)C(=O)/C=C/c2ccc(OC)c(OC)c2)cc1OC
[1]
  GI50: 2.13 µM
  TGI: 5.16 µM
[2]
  GI50: 1.08 µM
  TGI: 3.31 µM
[3]
  GI50: 2.28 µM
  TGI: 7.88 µM
[4]
  GI50: 0.763 µM
  TGI: 2.62 µM
[5]
  GI50: 2.49 µM
  TGI: 33.9 µM
[6]
  GI50: 2.99 µM
  TGI: > 100 µM
[7]
  GI50: 2.53 µM
  TGI: 8.58 µM
[8]
  GI50: 2.14 µM
  TGI: 6.15 µM
[9]
  GI50: 1.81 µM
  TGI: 4.45 µM
[10]
  GI50: 1.63 µM
  TGI: 3.41 µM
[11]
  GI50: 6.8 µM
  TGI: > 100 µM
[12]
  GI50: 1.69 µM
  TGI: 4.4 µM
[13]
  GI50: 0.319 µM
  TGI: 1.33 µM
[14]
  GI50: 1.6 µM
  TGI: 3.67 µM
[15]
  GI50: 3.05 µM
  TGI: 31.2 µM
[16]
  GI50: > 100 µM
  TGI: > 100 µM
[17]
  GI50: 2.06 µM
  TGI: 19.3 µM
[18]
  GI50: 1.46 µM
  TGI: 3.04 µM
[19]
  GI50: 2.5 µM
  TGI: 8.08 µM
[20]
  GI50: 3.83 µM
  TGI: 25 µM
[21]
  GI50: 2.26 µM
  TGI: 19.9 µM
[22]
  GI50: 1.16 µM
  TGI: 2.98 µM
[23]
  GI50: 4.07 µM
  TGI: > 100 µM
[24]
  GI50: 0.389 µM
  TGI: 2.33 µM
[25]
  GI50: 36.4 µM
  TGI: > 100 µM
[26]
  GI50: 5 µM
  TGI: > 100 µM
[27]
  GI50: 2.97 µM
  TGI: > 100 µM
[28]
  GI50: 30.6 µM
  TGI: > 100 µM
[29]
  GI50: 3.06 µM
  TGI: 17.7 µM
[30]
  GI50: 1.53 µM
  TGI: 3.6 µM
[31]
  GI50: 2.25 µM
  TGI: 6 µM
[32]
  GI50: 0.769 µM
  TGI: 6.18 µM
[33]
  GI50: 4.2 µM
  TGI: > 100 µM
[34]
  GI50: 5.77 µM
  TGI: 78.8 µM
[35]
  GI50: 3.17 µM
  TGI: > 100 µM
[36]
  GI50: 3.11 µM
  TGI: 23.3 µM
[37]
  GI50: 3.75 µM
  TGI: 19.3 µM
[38]
  GI50: 3.3 µM
  TGI: > 100 µM
[39]
  GI50: 2.22 µM
  TGI: 20 µM
[40]
  GI50: 15.1 µM
  TGI: 82.8 µM
[41]
  GI50: 1.46 µM
  TGI: 3.21 µM
[42]
  GI50: 1.07 µM
  TGI: > 100 µM
[43]
  GI50: 1.72 µM
  TGI: 3.21 µM
[44]
  GI50: 2.84 µM
  TGI: 9.9 µM
[45]
  GI50: 3.06 µM
  TGI: 11.2 µM
[46]
  GI50: 2.05 µM
  TGI: 5.4 µM
[47]
  GI50: 1.9 µM
  TGI: 4.95 µM
[48]
  GI50: 0.516 µM
  TGI: 9.48 µM
[49]
  GI50: 2.36 µM
  TGI: 16.9 µM
[50]
  GI50: 2.26 µM
  TGI: > 100 µM
[51]
  GI50: 3.08 µM
  TGI: 14.2 µM
[52]
  GI50: 1.92 µM
  TGI: 4.87 µM
[53]
  GI50: 2.71 µM
  TGI: > 100 µM
